The NIST ThermoML archive (doi:10.1016/j.jct.2016.01.016)
Numbers after ± are expanded uncertainties.

Key:
[1] = for mass density: 101.33 kPa
[2] = Molar enthalpy of transition or fusion; settings: DSC
[3] = 300 K, Crystal 2, X-ray diffraction
[4] = 300 K, Metastable crystal, X-ray diffraction
[5] = 400 K, Crystal 1, X-ray diffraction

In the case of `NC(=O)CN1CCCC1=O` [2-oxo-1-pyrrolidineacetamide], the mass density [1, 3] is reported as 1373 ± 2 kg/m3, the mass density [1, 4] is reported as 1365 ± 2 kg/m3 and the molar volume [1, 3] is reported as 0.0001036 ± 4.9e-07 m3/mol. It also gave a molar volume [1, 4] of 0.0001042 ± 4.9e-07 m3/mol, a molar volume ([1]; 310 K, Crystal 2, X-ray diffraction) of 0.0001031 ± 4.9e-07 m3/mol and a molar volume ([1]; 310 K, Metastable crystal, X-ray diffraction) of 0.0001044 ± 4.9e-07 m3/mol. The molar volume ([1]; 320 K, Crystal 2, X-ray diffraction) was 0.0001039 ± 4.9e-07 m3/mol, the molar volume ([1]; 320 K, Metastable crystal, X-ray diffraction) was 0.0001045 ± 4.9e-07 m3/mol and the molar volume ([1]; 330 K, Crystal 2, X-ray diffraction) was 0.0001036 ± 4.9e-07 m3/mol. For the same compound, the molar volume ([1]; 330 K, Metastable crystal, X-ray diffraction) was 0.0001049 ± 4.9e-07 m3/mol, the molar volume ([1]; 340 K, Crystal 2, X-ray diffraction) was 0.0001042 ± 4.9e-07 m3/mol and the molar volume ([1]; 340 K, Metastable crystal, X-ray diffraction) was 0.0001051 ± 4.9e-07 m3/mol. It also gave a molar volume ([1]; 350 K, Crystal 2, X-ray diffraction) of 0.0001042 ± 4.9e-07 m3/mol, a molar volume ([1]; 350 K, Metastable crystal, X-ray diffraction) of 0.0001054 ± 4.9e-07 m3/mol and a molar volume ([1]; 355 K, Metastable crystal, X-ray diffraction) of 0.0001054 ± 4.9e-07 m3/mol. It also gave a molar volume ([1]; 360 K, Crystal 2, X-ray diffraction) of 0.0001047 ± 4.9e-07 m3/mol, a molar volume ([1]; 360 K, Metastable crystal, X-ray diffraction) of 0.0001055 ± 4.9e-07 m3/mol and a molar volume ([1]; 370 K, Crystal 1, X-ray diffraction) of 0.0001104 ± 4.9e-07 m3/mol. The molar volume ([1]; 370 K, Crystal 2, X-ray diffraction) was 0.0001049 ± 4.9e-07 m3/mol, the molar volume ([1]; 375 K, Crystal 1, X-ray diffraction) was 0.0001105 ± 4.9e-07 m3/mol and the molar volume ([1]; 380 K, Crystal 1, X-ray diffraction) was 0.0001106 ± 4.9e-07 m3/mol. It also gave a molar volume ([1]; 385 K, Crystal 1, X-ray diffraction) of 0.0001108 ± 4.9e-07 m3/mol, a molar volume ([1]; 390 K, Crystal 1, X-ray diffraction) of 0.0001108 ± 4.9e-07 m3/mol and a molar volume ([1]; 395 K, Crystal 1, X-ray diffraction) of 0.000111 ± 4.9e-07 m3/mol. The mass density [1, 5] was 1281 ± 2 kg/m3, the molar volume [1, 5] was 0.000111 ± 4.9e-07 m3/mol and the molar volume ([1]; 405 K, Crystal 1, X-ray diffraction) was 0.0001112 ± 4.9e-07 m3/mol. It also gave a molar volume ([1]; 410 K, Crystal 1, X-ray diffraction) of 0.0001112 ± 4.9e-07 m3/mol, a molar volume ([1]; 423 K, Liquid, Vibrating tube method) of 0.0001228 ± 4.4e-07 m3/mol and a molar volume ([1]; 428 K, Liquid, Vibrating tube method) of 0.0001232 ± 4.4e-07 m3/mol. For the same compound, the molar volume ([1]; 433 K, Liquid, Vibrating tube method) was 0.0001235 ± 4.4e-07 m3/mol, the molar volume ([1]; 438 K, Liquid, Vibrating tube method) was 0.0001239 ± 4.4e-07 m3/mol and the molar volume ([1]; 443 K, Liquid, Vibrating tube method) was 0.0001241 ± 4.4e-07 m3/mol. The molar volume ([1]; 448 K, Liquid, Vibrating tube method) was 0.0001245 ± 4.4e-07 m3/mol, the molar volume ([1]; 453 K, Liquid, Vibrating tube method) was 0.0001248 ± 4.4e-07 m3/mol and the molar volume ([1]; 458 K, Liquid, Vibrating tube method) was 0.0001252 ± 4.4e-07 m3/mol. The molar volume ([1]; 463 K, Liquid, Vibrating tube method) was 0.0001255 ± 4.4e-07 m3/mol, the molar volume ([1]; 468 K, Liquid, Vibrating tube method) was 0.0001259 ± 4.4e-07 m3/mol and the molar volume ([1]; 473 K, Liquid, Vibrating tube method) was 0.0001262 ± 4.4e-07 m3/mol. The Triple point temperature ([1]; Crystal 1, DSC) was 422.95 ± 5.1 K, the Triple point temperature ([1]; Crystal 2, X-ray diffraction) was 370.15 ± 6 K and the Triple point temperature ([1]; Metastable crystal, DSC) was 365.05 ± 5.1 K. The Triple point temperature ([1]; Metastable crystal, X-ray diffraction) was 360.15 ± 6 K, the “Molar enthalpy of transition or fusion” value ([2]; Crystal 1) was 6.35 ± 0.203 kcal/mol and the “Molar enthalpy of transition or fusion” value ([2]; Metastable crystal) was 0.843 ± 0.208 kcal/mol.
